Results published in the SangsterLogP compilation.

Assay: method code SF, from DOI: 10.1007/bf01990207, PMID: 819289
Conditions: pH 7.4
Work on [N-]=[N+]=CC(=O)NCC(N)=O yielded a logD of -1.26.
In the case of CCNC(=O)CNC(=O)C=[N+]=[N-], the logD was -0.62.
CNC(=O)CNC(=O)C=[N+]=[N-] gave a logD of -0.87.
CCOC(=O)CNC(=O)C=[N+]=[N-] gave a logD of -0.08.
Work on CCCNC(=O)CNC(=O)C=[N+]=[N-] yielded a logD of -0.24.
For CC(C)NC(=O)CNC(=O)C=[N+]=[N-], the logD was -0.41.
Work on [N-]=[N+]=CC(=O)NCC(=O)NN yielded a logD of -0.76.
With [N-]=[N+]=CC(=O)NCC(=O)NCCO the logD was -1.35.
For CC(C)CNC(=O)CNC(=O)C=[N+]=[N-], the logD was 0.37.

Assay: method code SF-AS, from DOI: 10.1007/bf01990207, PMID: 819289
Conditions: pH 7.4
For CCCCCCNC(=O)CNC(=O)C=[N+]=[N-], the logD was 1.51.
